From patent US10597388B2, “Pyridazinone herbicides” (FMC CORPORATION, priority 2014, dated 2020)

Tests used:
Format in all cases: in vivo
[1] = test system: buckwheat, wild (wild buckwheat, Polygonum convolvulus); assay: Test D controlled growth environment herbicide test, pre- and postemergence; conditions: for Buckwheat, Wild plant response rating / Plant response rating (scale of 0 to 100), Buckwheat, Wild: 31 g ai/ha
Outline: (§1)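 Rating is visual, 0–100 scale (100 = complete control), made against untreated plants 14–21 d after treatment in controlled growth conditions. Postemergence sprays went onto 1- to 4-leaf plants in peat medium; preemergence sprays onto silt loam after sowing; formulation included a surfactant.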

[2] = test system: mustard, wild (wild mustard, Sinapis arvensis); assay: as above
Outline: as §1

[3] = test system: ryegrass, Italian (Italian ryegrass, Lolium multiflorum); assay: as above
Outline: as §1

[4] = test system: Italian ryegrass (Lolium multiflorum); assay: Test E greenhouse herbicide test, pre- and postemergence; conditions: Postemergence
Description: (§2) Seeds of plant species selected from corn (Zea mays), soybean (Glycine max), velvetleaf (Abutilon theophrasti), lambsquarters (Chenopodium album), wild poinsettia (Euphorbia heterophylla), pigweed, palmer (palmer pigweed, Amaranthus palmeri), waterhemp (common waterhemp, Amaranthus rudis), surinam grass (Brachiaria decumbens), crabgrass, large (large crabgrass, Digitaria sanguinalis), crabgrass, Brazilian (Brazilian crabgrass, Digitaria horizontalis), panicum, fall (fall panicum, Panicum dichotomiflorum), foxtail, giant (giant foxtail, Setaria faberii), foxtail, green (green foxtail, Setaria viridis), goosegrass (Eleusine indica), johnsongrass (Sorghum halepense), ragweed (common ragweed, Ambrosia elatior), barnyardgrass (Echinochloa crus-galli), sandbur (southem sandbur, Cenchrus echinatus), arrowleaf sida (Sida rhombifolia), Italian ryegrass (Lolium multiflorum), dayflower (Virginia (VA) dayflower, Commelina virginica), field bindweed (Convolvulus arvensis), momingglory (Ipomoea coccinea), nightshade (eastern black nightshade, Solanum ptycanthum), kochia (Kochia scoparia), nutsedge, yellow (yellow nutsedge, Cyperus esculentus), horseweed (Conyza canadensis), and beggarticks (hairy beggarticks, Bidens pilosa), were planted into a silt loam soil and treated preemergence with test chemicals formulated in a non-phytotoxic solvent mixture which included a surfactant.
(§3) At the same time, plants from these crop and weed species and also waterhemp_RES1, (ALS & Triazine resistant common waterhemp, Amaranthus rudis), and waterhemp_RES2, (ALS & HPPD resistant common waterhemp, Amaranthus rudis) were planted in pots containing Redi-Earth® planting medium (Scotts Company, 14111 Scottslawn Road, Marysville, Ohio 43041) comprising spaghnum peat moss, vermiculite, wetting agent and starter nutrients were treated with postemergence applications of test chemicals formulated in the same manner. Plants ranged in height from 2 to 18 cm for postemergence treatments (1- to 4-leaf stage). Treated plants and controls were maintained in a greenhouse for 14 to 21 d, after which time all species were compared to controls and visually evaluated. Plant response ratings, summarized in Table E, are based on a scale of 0 to 100 where 0 is no effect and 100 is complete control. A dash (-) response means no test result.

[5] = test system: crabgrass, Brazilian (Brazilian crabgrass, Digitaria horizontalis); assay: as above; conditions: Postemergence
Description: as §2, §3

[6] = test system: kochia (Kochia scoparia); assay: as above; conditions: Postemergence
Description: as §2, §3

[7] = Postemergence, scale 0 to 100 (0 no effect, 100 complete control)
[8] = Postemergence, 125 g ai/ha, visual rating on scale 0 (no effect) to 100 (complete control), 14 to 21 d
[9] = Postemergence, 250 g ai/ha, scale 0 to 100 (0 no effect, 100 complete control)
[10] = Preemergence, 62 g ai/ha, scale 0 to 100 (0 no effect, 100 complete control)
[11] = Preemergence, 125 g ai/ha, scale 0 to 100 (0 no effect, 100 complete control)
[12] = Preemergence, 250 g ai/ha, scale 0 to 100, 0 no effect, 100 complete control
[13] = postemergence, 62 g ai/ha, scale 0 to 100, 0 no effect, 100 complete control
[14] = Postemergence, 31 g ai/ha, scale 0 to 100 (0 no effect, 100 complete control)
[15] = 62 g ai/ha, scale 0 to 100 (0 no effect, 100 complete control)
[16] = 125 g ai/ha, scale 0 to 100 (0 no effect, 100 complete control)
[17] = 16 g ai/ha, visual, scale 0 no effect to 100 complete control
[18] = 31 g ai/ha, visual, scale 0 no effect to 100 complete control
[19] = 250 g ai/ha, scale 0 to 100 (0 no effect, 100 complete control)

SMILES | Buckwheat, Wild plant response rating [1, 7] | Plant response rating, Buckwheat, Wild [1, 8] | Plant response rating, Buckwheat, Wild [1, 9] | Plant response rating (scale of 0 to 100), Buckwheat, Wild ([1]; Preemergence) | Plant response rating, Buckwheat, Wild [1, 10] | Plant response rating, Buckwheat, Wild [1, 11] | Plant response rating, Buckwheat, Wild [1, 12] | Plant response rating, Buckwheat, Wild [1, 13] | Mustard, Wild plant response rating [2, 14] | Plant response rating, Mustard, Wild [2, 8] | Plant response rating, Mustard, Wild [2, 9] | Plant response rating (scale of 0 to 100), Mustard, Wild ([2]; Preemergence, 31 g ai/ha) | Plant response rating, Mustard, Wild [2, 11] | Plant response rating, Mustard, Wild [2, 12] | Plant response rating, Mustard, Wild [2, 13] | Ryegrass, Italian plant response rating [3, 14] | Plant response rating, Ryegrass, Italian [3, 8] | Plant response rating, Ryegrass, Italian [3, 9] | Plant response rating (scale of 0 to 100), Ryegrass, Italian ([3]; Preemergence, 31 g ai/ha) | Plant response rating, Ryegrass, Italian [3, 13] | other results
Cc1nn(C)c(=O)c(-c2c(C)sc3ccc(Br)cc23)c1O [Compound 22] | 90 | 100 | 100 | 20 | 20 | 85 | 95 | 98 | 90 | 100 | 100 | 5 | 85 | 95 | 95 | 75 | 85 | 90 | 85 | 80 | Plant response rating, Mustard, Wild [2, 10]: 65; Plant response rating, Ryegrass, Italian [3, 10]: 90; Plant response rating, Ryegrass, Italian [3, 11]: 100; Plant response rating, Ryegrass, Italian [3, 12]: 100
Cc1ccc2ccccc2c1-c1c(O)c(Br)nn(C)c1=O [Compound 23] | – | 100 | 100 | – | – | – | – | 100 | – | 100 | 100 | – | – | – | 95 | – | 85 | 85 | – | 80 | –
Cc1nn(C)c(=O)c(-c2cccc3ccccc23)c1O [Compound 11, 5-hydroxy-2,6-dimethyl-4-(1-naphthalenyl)-3(2H)-pyridazinone] | 45 | 60 | 95 | 20 | 15 | 15 | 25 | 45 | 65 | 75 | 95 | 0 | 75 | 100 | 70 | 80 | 85 | 90 | 85 | 85 | Plant response rating, Mustard, Wild [2, 10]: 20; Plant response rating, Ryegrass, Italian [3, 10]: 90; Plant response rating, Ryegrass, Italian [3, 11]: 100; Plant response rating, Ryegrass, Italian [3, 12]: 100
CC(=O)Oc1c(C)nn(C)c(=O)c1-c1c(C)cc(C)c2ccccc12 [Compound 99] | – | – | – | – | – | – | – | – | – | – | – | – | – | – | – | – | – | – | – | – | Plant response rating, Ryegrass, Italian [4, 15]: 70; Plant response rating, Ryegrass, Italian [4, 16]: 80; Plant response rating, Ryegrass, Italian [4, 17]: 40; Plant response rating, Ryegrass, Italian [4, 18]: 50; Plant response rating, Crabgrass, Brazil [5, 15]: 10; Plant response rating, Crabgrass, Brazil [5, 16]: 20; Plant response rating, Crabgrass, Brazil [5, 17]: 5; Plant response rating, Crabgrass, Brazil [5, 18]: 10; Plant response rating, Kochia [6, 15]: 60; Plant response rating, Kochia [6, 16]: 70; Plant response rating, Kochia [6, 17]: 55; Plant response rating, Kochia [6, 18]: 50
Cc1nn(C)c(=O)c(-c2cccc3ccc(Br)cc23)c1O [Compound 126] | 70 | 100 | 100 | 0 | 0 | 10 | 25 | 100 | 80 | 90 | 100 | 60 | 70 | 98 | 80 | 85 | 90 | 90 | 75 | 90 | Plant response rating (scale of 0 to 100), Mustard, Wild ([2]; Preemergence, 62 g ai/ha): 70; Plant response rating (scale of 0 to 100), Ryegrass, Italian ([3]; Preemergence, 62 g ai/ha): 90; Plant response rating, Ryegrass, Italian [3, 11]: 98; Plant response rating, Ryegrass, Italian [3, 12]: 100; Plant response rating, Ryegrass, Italian [4, 15]: 80; Plant response rating, Ryegrass, Italian [4, 16]: 85; Plant response rating, Ryegrass, Italian [4, 19]: 90; Plant response rating, Ryegrass, Italian [4, 18]: 70; Plant response rating, Crabgrass, Brazil [5, 15]: 25; Plant response rating, Crabgrass, Brazil [5, 16]: 40; Plant response rating, Crabgrass, Brazil [5, 19]: 50; Plant response rating, Crabgrass, Brazil [5, 18]: 10; Plant response rating, Kochia [6, 15]: 100; Plant response rating, Kochia [6, 16]: 100; Plant response rating, Kochia [6, 19]: 100; Plant response rating, Kochia [6, 18]: 100
Cc1nn(C)c(=O)c(-c2c(C)sc3c(C)cc(Cl)cc23)c1O [Compound 35] | 95 | 100 | 100 | 15 | 20 | 20 | 35 | 100 | 98 | 100 | 100 | 85 | 100 | 100 | 100 | 65 | 80 | 90 | 75 | 75 | Plant response rating, Mustard, Wild [2, 10]: 100; Plant response rating, Ryegrass, Italian [3, 10]: 85; Plant response rating, Ryegrass, Italian [3, 11]: 100; Plant response rating, Ryegrass, Italian [3, 12]: 100
CC(=O)Oc1c(C)nn(C)c(=O)c1-c1c(C)sc2ccc(Cl)cc12 [Compound 108] | 90 | 100 | 100 | 0 | 0 | 20 | 35 | 100 | 70 | 95 | 100 | 5 | 95 | 85 | 75 | 90 | 95 | 100 | 80 | 90 | Plant response rating (scale of 0 to 100), Mustard, Wild ([2]; Preemergence, 62 g ai/ha): 60; Plant response rating (scale of 0 to 100), Ryegrass, Italian ([3]; Preemergence, 62 g ai/ha): 98; Plant response rating, Ryegrass, Italian [3, 11]: 100; Plant response rating, Ryegrass, Italian [3, 12]: 100
